Values quoted from earlier work in patent publication US20060045865A1, “Controlled regional oral delivery” (Spherics, Inc., priority 2004, published 2006).
Where two headings read alike, the source gives them in different places.

Key:
[1] = not given; remark: listed apart in the source
[2] = system: H. pylori; details: pH 5.5

Compound	Bioavailability (oral)	Solubility in water [1]	also measured
NCC1(CC(=O)O)CCCCC1 [Gabapentin]	–	–	Bioavailability (900 mg dose, given three times a day): ≤ 60%
Nc1nc2c(ncn2COCCO)c(=O)[nH]1 [Acyclovir, 2-amino-1,9-dihydro-9-[(2-hydroxyethoxy)methyl]-6H-purin-6-one]	10-20%	–	–
C=CC[C@@H]1/C=C(\C)C[C@H](C)C[C@H](OC)[C@H]2O[C@@](O)(C(=O)C(=O)N3CCCC[C@H]3C(=O)O[C@H](/C(C)=C/[C@@H]3CC[C@@H](O)[C@H](OC)C3)[C@H](C)[C@@H](O)CC1=O)[C@H](C)C[C@@H]2OC [Tacrolimus]	–	practically insoluble	Absolute bioavailability (5 mg dose taken twice a day): approximately 17%
NC(=O)N1c2ccccc2C=Cc2ccccc21 [Carbamazepine, 5H-dibenz[b,f]azepine-5-carboxamide]	–	–	Bioavailability (in vivo, po): 89%
CC(=O)O[C@H]1C(=O)[C@@]2(C)[C@H]([C@H](OC(=O)c3ccccc3)[C@]3(O)C[C@H](OC(=O)[C@H](O)[C@@H](NC(=O)c4ccccc4)c4ccccc4)C(C)=C1C3(C)C)[C@]1(OC(C)=O)CO[C@@H]1C[C@@H]2O [Paclitaxel]	–	insoluble	–
1-[(4R,5s)-5-[(2-aminoethyl)amino]-N^2-(10,12-dimethyl-1-oxotetradecyl)-4-hydroxy-L-ornithine]-5-[(3IRI)-3-hydroxy-L-ornithine]pneumocandin B0 diacetate (salt) [Caspofungin acetate]	0%	freely soluble	–
CC[C@H]1OC(=O)[C@H](C)[C@@H](O[C@H]2C[C@@](C)(OC)[C@@H](O)[C@H](C)O2)[C@H](C)[C@@H](O[C@@H]2O[C@H](C)C[C@H](N(C)C)[C@H]2O)[C@](C)(OC)C[C@@H](C)C(=O)[C@H](C)[C@@H](O)[C@]1(C)O [clarithromycin]	–	–	Decrease in activity [2]: > 16 fold
CC(C)[C@H](N)C(=O)OCCOCn1cnc2c(=O)[nH]c(N)nc21 [Valacyclovir]	approximately 50%	greater solubility in water than acyclovir	–
C#C[C@]1(O)CC[C@H]2[C@@H]3CCC4=Cc5oncc5C[C@]4(C)[C@H]3CC[C@@]21C [Danazol, 17a-Pregna-2,4-dien-20-yno[2,3-d]-isoxazol-17-ol]	–	–	Half-life (oral administration): 4 to 5 h; Time to peak plasma concentration (oral dose): ≤ 2 h
